Measurements: ChEMBL document CHEMBL5537140, “Discovery and exploration of novel somatostatin receptor subtype 5 (SSTR5) antagonists for the treatment of cholesterol gallstones” (Eur J Med Chem, 2024)
Calls of active or inactive are those of the source. The rule behind the calls is not given here.

Experiments:
CHO = experiment: Cytotoxicity against CHO cells upto 10 uM; conditions: chinese hamster
[1] = target: T1, Somatostatin receptor type 5 (Mus musculus, UniProt O08858); experiment: Antagonist activity at N-terminal HA-tagged mouse SSTR5 expressed in CHO cells assessed as change in intracellular […] level preincubated with agonist for 10 mins followed by compound addition by CRE-driven luciferase reporter based microplate reader; type: functional, cell-based
T1 sequence (O08858 whole entry): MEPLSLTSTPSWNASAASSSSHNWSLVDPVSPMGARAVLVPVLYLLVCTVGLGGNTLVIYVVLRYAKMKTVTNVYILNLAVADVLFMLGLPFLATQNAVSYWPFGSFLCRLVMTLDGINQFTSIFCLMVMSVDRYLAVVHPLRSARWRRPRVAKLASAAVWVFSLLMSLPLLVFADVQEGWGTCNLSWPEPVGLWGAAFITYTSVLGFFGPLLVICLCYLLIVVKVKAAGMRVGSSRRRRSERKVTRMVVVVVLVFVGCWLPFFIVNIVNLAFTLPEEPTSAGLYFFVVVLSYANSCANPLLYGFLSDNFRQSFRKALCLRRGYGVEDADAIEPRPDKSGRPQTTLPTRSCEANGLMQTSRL

Mus musculus [2] = experiment: Protection against lithogenic diet induced cholesterol gallstone C57BL/6J mouse model assessed as reduction in cholesterol gallstone formation at 60 mg/kg, po administered once daily for 14 days; type: functional, organism-based; conditions: time 14.0 day
[3] = target: Somatostatin receptor type 5 (Homo sapiens, UniProt P35346); experiment: Antagonist activity at N-terminal HA-tagged human SSTR5 expressed in CHO cells assessed as change in intracellular […] level preincubated with agonist for 10 mins followed by compound addition by CRE-driven luciferase reporter based microplate reader; type: functional, cell-based
Somatostatin receptor type 5 (Homo sapiens, UniProt P35346), sequence (P35346 whole entry): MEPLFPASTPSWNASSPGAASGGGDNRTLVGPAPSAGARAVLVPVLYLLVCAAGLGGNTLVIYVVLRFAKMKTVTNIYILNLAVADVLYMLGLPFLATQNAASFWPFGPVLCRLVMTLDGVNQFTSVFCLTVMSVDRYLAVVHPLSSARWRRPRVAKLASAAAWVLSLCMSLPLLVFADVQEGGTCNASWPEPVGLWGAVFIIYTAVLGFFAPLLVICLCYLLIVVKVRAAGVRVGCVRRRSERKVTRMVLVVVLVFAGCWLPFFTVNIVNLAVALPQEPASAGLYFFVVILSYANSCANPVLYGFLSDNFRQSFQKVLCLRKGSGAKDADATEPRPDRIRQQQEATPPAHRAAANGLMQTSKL

Mus musculus [4] = experiment: Protection against lithogenic diet induced cholesterol gallstone C57BL/6J mouse model assessed as reduction in large gallstone precipitate at 1 to 3 mg/kg, po administered once daily for 14 days; type: functional, organism-based; conditions: dose 1-3 mg/kg, time 14.0 day
Mus musculus [5] = experiment: Protection against lithogenic diet induced cholesterol gallstone C57BL/6J mouse model assessed as reduction in large gallstone precipitate at 60 mg/kg, po administered once daily for 14 days; type: functional, organism-based; conditions: time 14.0 day
Mus musculus [6] = experiment: Protection against lithogenic diet induced cholesterol gallstone C57BL/6J mouse model assessed as reduction in cholesterol gallstone formation at 1 to 3 mg/kg, po administered once daily for 14 days; type: functional, organism-based; conditions: dose 1-3 mg/kg, time 14.0 day
[7] = Cmax in C57BL/6J mouse at 3 mg/kg, po measured at 0.25 to 24 hrs by LC-MS/MS analysis; type: ADME, organism-based; conditions: in vivo, time 0.25-24 hrs
[8] = Observed clearance in C57BL/6J mouse at 1 mg/kg, iv measured at 0.05 to 24 hrs by LC-MS/MS analysis; type: ADME, organism-based; conditions: in vivo, time 0.05-24 hrs
[9] = Observed volume of distribution at steady state in C57BL/6J mouse at 1 mg/kg, iv measured at 0.05 to 24 hrs by LC-MS/MS analysis; type: ADME, organism-based; conditions: in vivo, time 0.05-24 hrs, read-out: Vdss
[10] = Half-life in C57BL/6J mouse at 1 mg/kg, iv measured at 0.05 to 24 hrs by LC-MS/MS analysis; type: ADME, organism-based; conditions: in vivo, time 0.05-24 hrs
[11] = Metabolic stability in mouse liver microsomes assessed as parent compound remaining at 1 uM incubated for 30 mins in presence of NADPH by LC-MS/MS analysis; type: ADME, Microsome; conditions: read-out: Stability
[12] = Metabolic stability in human liver microsomes assessed as parent compound remaining at 1 uM incubated for 30 mins in presence of NADPH by LC-MS/MS analysis; type: ADME, Microsome; conditions: read-out: Stability
[13] = Cytotoxicity against CHO cells assessed as cellular ATP at 10 uM relative to control; type: toxicity, cell-based, Cricetulus griseus; conditions: chinese hamster, read-out: Activity
[14] = Oral bioavailability in C57BL/6J mouse at 3 mg/kg measured at 0.25 to 24 hrs by LC-MS/MS analysis; type: ADME, organism-based; conditions: in vivo, time 0.25-24 hrs
Mus musculus [15] = experiment: Induction of gallbladder emptying in C57BL/6J mouse assessed as reduction in gallbladder weight at 10 mg/kg, po preadministered with compound for 30 mins followed by egg yolk administration and measured after 15 mins; type: functional, organism-based; conditions: time 45.0 min
[16] = Observed AUC (0 to infinity) in C57BL/6J mouse at 3 mg/kg, po measured at 0.25 to 24 hrs by LC-MS/MS analysis; type: ADME, organism-based; conditions: in vivo, time 0.25-24 hrs
[17] = Observed AUC (0 to infinity) in C57BL/6J mouse at 1 mg/kg, iv measured at 0.05 to 24 hrs by LC-MS/MS analysis; type: ADME, organism-based; conditions: in vivo, time 0.05-24 hrs
[18] = Half-life in C57BL/6J mouse at 3 mg/kg, po measured at 0.25 to 24 hrs by LC-MS/MS analysis; type: ADME, organism-based; conditions: in vivo, time 0.25-24 hrs
Mus musculus [19] = experiment: Protection against lithogenic diet induced cholesterol gallstone C57BL/6J mouse model assessed as reduction in dense-cored gallstone precipitate at 60 mg/kg, po administered once daily for 14 days; type: functional, organism-based; conditions: time 14.0 day
Mus musculus [20] = experiment: Protection against lithogenic diet induced cholesterol gallstone C57BL/6J mouse model assessed as reduction in dense-cored gallstone precipitate at 1 to 3 mg/kg, po administered once daily for 14 days; type: functional, organism-based; conditions: dose 1-3 mg/kg, time 14.0 day
[21] = target: Voltage-gated inwardly rectifying potassium channel KCNH2 (Homo sapiens, UniProt Q12809); experiment: Inhibition of hERG expressed in CHO cells by Qpatch automatic patch clamp method
Voltage-gated inwardly rectifying potassium channel KCNH2, sequence (Q12809 whole entry): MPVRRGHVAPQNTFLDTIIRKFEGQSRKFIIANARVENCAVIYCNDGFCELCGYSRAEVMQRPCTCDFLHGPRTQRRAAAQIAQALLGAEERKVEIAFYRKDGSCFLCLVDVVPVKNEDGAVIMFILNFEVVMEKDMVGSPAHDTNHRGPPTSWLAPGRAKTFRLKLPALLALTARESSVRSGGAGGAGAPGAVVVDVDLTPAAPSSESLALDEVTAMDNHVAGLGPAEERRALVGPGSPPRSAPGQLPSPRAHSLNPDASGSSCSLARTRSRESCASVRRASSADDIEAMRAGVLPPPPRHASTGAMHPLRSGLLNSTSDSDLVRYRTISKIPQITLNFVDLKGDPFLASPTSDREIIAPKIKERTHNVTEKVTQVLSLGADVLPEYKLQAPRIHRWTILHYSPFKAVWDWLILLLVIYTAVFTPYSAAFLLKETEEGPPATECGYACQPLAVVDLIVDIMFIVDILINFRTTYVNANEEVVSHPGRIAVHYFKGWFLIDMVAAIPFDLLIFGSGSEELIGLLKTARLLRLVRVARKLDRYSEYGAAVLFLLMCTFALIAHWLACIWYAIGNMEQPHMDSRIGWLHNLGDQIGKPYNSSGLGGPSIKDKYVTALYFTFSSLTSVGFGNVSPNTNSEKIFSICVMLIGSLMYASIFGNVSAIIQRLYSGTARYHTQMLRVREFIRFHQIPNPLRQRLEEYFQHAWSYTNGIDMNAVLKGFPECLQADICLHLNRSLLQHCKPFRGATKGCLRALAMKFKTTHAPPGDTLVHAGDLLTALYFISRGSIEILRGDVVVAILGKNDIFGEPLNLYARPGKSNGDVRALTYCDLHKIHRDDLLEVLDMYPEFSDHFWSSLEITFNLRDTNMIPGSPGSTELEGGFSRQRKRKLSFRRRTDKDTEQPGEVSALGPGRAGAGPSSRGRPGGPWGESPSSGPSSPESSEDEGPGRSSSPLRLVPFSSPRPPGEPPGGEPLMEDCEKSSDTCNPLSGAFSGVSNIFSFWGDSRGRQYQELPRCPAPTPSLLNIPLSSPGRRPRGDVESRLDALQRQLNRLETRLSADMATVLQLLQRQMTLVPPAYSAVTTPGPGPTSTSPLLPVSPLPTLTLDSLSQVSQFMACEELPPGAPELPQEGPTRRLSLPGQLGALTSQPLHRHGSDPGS

[22] = Tmax in C57BL/6J mouse at 3 mg/kg, po measured at 0.25 to 24 hrs by LC-MS/MS analysis; type: ADME, organism-based; conditions: in vivo, time 0.25-24 hrs

SMILES	Activity (CHO)	IC50 [1]	also measured
CCOc1cc(CN2CCC(F)(CNc3ccc(N)cc3)CC2)cc(OCC)c1-c1ccc(F)cc1	Non-Toxic	1.77 µM	
C[C@H](CCC(=O)O)[C@H]1CC[C@H]2[C@@H]3[C@@H](O)C[C@@H]4C[C@H](O)CC[C@]4(C)[C@H]3CC[C@]12C			Activity (Mus musculus [2]): Active
CCOc1cc(CN2CCC(F)(CNc3ccc(O)cc3)CC2)cc(OCC)c1-c1ccc(F)cc1	Non-Toxic	1.3 µM	
CCOc1cc(CN2CCC(F)(CNc3ccc(C(=O)O)c(Cl)c3)CC2)cc(OCC)c1-c1ccc(F)cc1	Non-Toxic	0.0422 µM	
CN(C)C(=O)C(CCN1CCC(O)(c2ccc(Cl)cc2)CC1)(c1ccccc1)c1ccccc1 [LOPERAMIDE]	Non-Toxic	63.6 µM	IC50 [3]: 33.1 µM
CCOc1cc(CN2CCC(O)(CNc3ccc(C(=O)O)cc3)CC2)cc(OCC)c1-c1ccc(F)cc1	Non-Toxic	0.052 µM	
CCOc1cc(CN2CCC(F)(CNc3ccc(C(=O)O)c(C)c3)CC2)cc(OCC)c1-c1ccc(F)cc1	Non-Toxic	0.0975 µM	
CCOc1cc(CN2CCC(CNc3ccc(C(=O)O)cc3)CC2)cc(OCC)c1-c1ccc(F)cc1	Non-Toxic	0.0917 µM	
CCOc1cc(CN2CCC(Oc3ccc(C(=O)O)cc3)CC2)cc(OCC)c1-c1ccc(F)cc1	Non-Toxic	0.0443 µM	
CCOc1cc(CN2CCC(F)(CNc3ccc(C(=O)O)cc3Cl)CC2)cc(OCC)c1-c1ccc(F)cc1	Non-Toxic	0.132 µM	
CCOc1cc(CN2CCC(C(=O)Nc3ccc(C(=O)O)cc3)CC2)cc(OCC)c1-c1ccc(F)cc1	Non-Toxic	0.853 µM	
CCOc1cc(CN2CCC(O)(c3ccc(Cl)cc3)CC2)cc(OCC)c1-c1ccc(F)cc1	Non-Toxic	11.1 µM	
CCOc1cc(CN2CCC(F)(C(=O)Nc3ccc(C(=O)O)cc3)CC2)cc(OCC)c1-c1ccc(F)cc1	Non-Toxic	2.56 µM	
CCOc1cc(CN2CCC(COc3ccc(C(=O)O)cc3)CC2)cc(OCC)c1-c1ccc(F)cc1		0.0115 µM	
CCOc1cc(CN2CCC(F)(CNc3ccc(C(=O)O)c(OC)c3)CC2)cc(OCC)c1-c1ccc(F)cc1	Non-Toxic	0.0014 µM	Activity (Mus musculus [4]): Active; Activity (Mus musculus [5]): Active; Activity (Mus musculus [6]): Active; Cmax [7]: 208 ng/mL; clearance [8]: 30.5 mL/min/kg; Vd [9]: 2.6 L/kg; half-life [10]: 2.45 h; remaining at 0.5 h, 1 µM [11]: 59.8%; remaining at 0.5 h, 1 µM [12]: 92.5%; viability at 10 µM [13]: 92%; bioavailability [14]: 29.3%; Activity (Mus musculus [15]): Active; AUC(0-inf) [16]: 494 ng·h/mL; AUC(0-inf) [17]: 562 ng·h/mL; half-life [18]: 3.58 h; Activity (Mus musculus [19]): Active; Activity (Mus musculus [20]): Active; IC50 [21]: > 20 µM; IC50 [3]: 0.0028 µM; Tmax [22]: 0.33 h
CCOc1cc(CN2CC(COc3ccc(C(=O)O)cc3)C2)cc(OCC)c1-c1ccc(F)cc1	Non-Toxic	0.394 µM	
CCOc1cc(CN2CCC(F)(CNc3ccc(C(=O)O)cc3)CC2)cc(OCC)c1-c1ccc(F)cc1	Non-Toxic	0.0139 µM	remaining at 0.5 h, 1 µM [11]: 81.4%; IC50 [21]: > 20 µM; IC50 [3]: 0.0276 µM
CCOc1cc(CN2CCC(O)(COc3ccc(C(=O)O)cc3)CC2)cc(OCC)c1-c1ccc(F)cc1	Non-Toxic	0.0511 µM	
CCOc1cc(CN2CCC(F)(CNc3ccc(C(=O)O)cc3C)CC2)cc(OCC)c1-c1ccc(F)cc1	Non-Toxic	0.0254 µM	
CCOc1cc(CN2CC(Nc3ccc(C(=O)O)cc3)C2)cc(OCC)c1-c1ccc(F)cc1	Non-Toxic	0.183 µM	IC50 [3]: 1.01 µM
CCOc1cc(CN2CCC(O)(Cc3ccc(C(=O)O)cc3)CC2)cc(OCC)c1-c1ccc(F)cc1	Non-Toxic	0.176 µM	
CCOc1cc(CN2CCC(C)(C(=O)Nc3ccc(C(=O)O)cc3)CC2)cc(OCC)c1-c1ccc(F)cc1	Non-Toxic	12.2 µM	
CCOc1cc(CN2CCC(C)(COc3ccc(C(=O)O)cc3)CC2)cc(OCC)c1-c1ccc(F)cc1	Non-Toxic	1.86 µM	IC50 [3]: 3.41 µM
CCOc1cc(CN2CCC(F)(COc3ccc(C(=O)O)cc3)CC2)cc(OCC)c1-c1ccc(F)cc1	Non-Toxic	0.0148 µM	remaining at 0.5 h, 1 µM [11]: 61%
CCOc1cc(CN2CCC(C)(CNc3ccc(C(=O)O)cc3)CC2)cc(OCC)c1-c1ccc(F)cc1	Non-Toxic	0.128 µM	
CCOc1cc(CN2CC(CNc3ccc(C(=O)O)cc3)C2)cc(OCC)c1-c1ccc(F)cc1	Non-Toxic	0.157 µM	
CCOc1cc(CN2CCC(O)(C(=O)Nc3ccc(C(=O)O)cc3)CC2)cc(OCC)c1-c1ccc(F)cc1	Non-Toxic	14.7 µM	IC50 [3]: 22.9 µM
CCOc1cc(CN2CCC(F)(CNc3ccc(C(=O)O)cc3OC)CC2)cc(OCC)c1-c1ccc(F)cc1	Non-Toxic	0.0205 µM	
